Experimental data published in publication PMC11932959, “Sulfonamide‐Bearing Pyrazolone Derivatives as Multitarget Therapeutic Agents: Design, Synthesis, Characterization, Biological Evaluation, In Silico ADME/T Profiling and Molecular Docking Study” (Pharmacology Research & Perspectives, 2025).

Key:
Assay in all cases: biochemical
AChE = AChE (Homo sapiens, UniProt P22303); format: biochemical; details: Lineweaver-Burk; for Ki: mean ± standard error, read-out: K I AChE
Description: (§1) First, purification of hCA I and hCA II enzymes for this study followed a modified procedure derived from prior literature sources. To evaluate the inhibitory effects, the esterase activities of hCA isoforms were assessed using the p‐nitrophenylacetate substrate, which is converted by both isoforms to the p‐nitrophenolate ion, as described in our prior studies. The assessment of ChE activities involved a modified adaptation of the Ellman's method, incorporating acetylthiocholine iodide for AChE and […] for BChE as the respective substrates.
(§2) The inhibition effects of the novel sulfonamide‐bearing pyrazolone derivatives were determined with different inhibitor concentrations (at least five) against hCA isoenzymes and ChEs. The IC 50 of the derivatives was calculated from Activity (%)–[inhibitor] graphs for derivatives. The inhibition types and K I values were found by Lineweaver and Burk's curves. The data analysis and graph generation were performed using GraphPad Prism version 8 for Mac (GraphPad Software, La Jolla, California, USA). The goodness of fit for enzyme inhibition models was compared using the extra sum‐of‐squares F test and the AICc approach.

hCA I = hCA I (Homo sapiens, UniProt P00915); format: biochemical; details: Lineweaver-Burk; for Ki: mean ± standard error, read-out: K I hCA I
Chain of hCA I (P00915 whole entry): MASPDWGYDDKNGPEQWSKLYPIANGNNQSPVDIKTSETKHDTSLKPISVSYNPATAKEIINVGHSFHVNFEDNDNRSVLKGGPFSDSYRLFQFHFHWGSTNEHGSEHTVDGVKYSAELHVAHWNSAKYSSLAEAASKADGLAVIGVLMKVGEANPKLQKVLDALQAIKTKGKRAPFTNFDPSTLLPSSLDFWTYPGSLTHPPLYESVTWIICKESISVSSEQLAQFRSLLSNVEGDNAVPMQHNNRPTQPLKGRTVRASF
Description: as §1, §2

hCA II = hCA II (Homo sapiens, UniProt P00918); format: biochemical; details: Lineweaver-Burk; for Ki: mean ± standard error, read-out: K I hCA II
Description: as §1, §2

BChE = BChE (Homo sapiens, UniProt P06276); details: mean ± standard error; Lineweaver-Burk; read-out: K I BChE
Chain of BChE (P06276 29-602, species assumed): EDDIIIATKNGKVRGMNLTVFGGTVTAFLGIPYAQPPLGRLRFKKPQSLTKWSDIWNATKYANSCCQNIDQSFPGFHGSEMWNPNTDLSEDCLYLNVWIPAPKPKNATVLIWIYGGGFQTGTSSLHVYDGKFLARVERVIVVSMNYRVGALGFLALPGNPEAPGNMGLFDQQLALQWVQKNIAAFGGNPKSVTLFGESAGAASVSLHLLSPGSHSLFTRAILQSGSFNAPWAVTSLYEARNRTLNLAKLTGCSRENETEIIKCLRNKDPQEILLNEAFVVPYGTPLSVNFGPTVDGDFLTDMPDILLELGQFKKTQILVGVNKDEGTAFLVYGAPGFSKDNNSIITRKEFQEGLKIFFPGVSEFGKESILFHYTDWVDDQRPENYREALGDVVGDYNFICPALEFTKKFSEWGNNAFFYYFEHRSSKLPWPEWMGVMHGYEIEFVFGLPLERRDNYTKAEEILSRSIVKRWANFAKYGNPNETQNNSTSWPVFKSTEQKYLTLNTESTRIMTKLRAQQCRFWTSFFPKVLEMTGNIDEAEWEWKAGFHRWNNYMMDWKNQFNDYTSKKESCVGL
Description: as §1, §2

Chain of AChE (P22303 32-614): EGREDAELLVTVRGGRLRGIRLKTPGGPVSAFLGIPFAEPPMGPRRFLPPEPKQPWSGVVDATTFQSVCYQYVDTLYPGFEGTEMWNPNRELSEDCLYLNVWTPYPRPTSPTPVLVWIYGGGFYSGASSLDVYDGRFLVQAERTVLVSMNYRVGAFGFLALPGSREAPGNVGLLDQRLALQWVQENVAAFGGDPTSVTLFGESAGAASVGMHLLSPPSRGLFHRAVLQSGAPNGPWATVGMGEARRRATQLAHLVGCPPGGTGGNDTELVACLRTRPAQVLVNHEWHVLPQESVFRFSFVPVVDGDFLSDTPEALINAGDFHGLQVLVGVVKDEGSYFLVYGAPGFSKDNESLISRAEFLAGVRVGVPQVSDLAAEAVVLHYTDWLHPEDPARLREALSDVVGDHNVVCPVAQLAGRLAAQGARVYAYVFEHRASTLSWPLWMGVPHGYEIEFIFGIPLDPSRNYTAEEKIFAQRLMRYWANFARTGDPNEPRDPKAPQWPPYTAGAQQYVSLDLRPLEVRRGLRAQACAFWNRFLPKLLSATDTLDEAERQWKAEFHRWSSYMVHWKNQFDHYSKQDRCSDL

SMILES	Ki (AChE)	Ki (hCA I)	Ki (hCA II)	Ki (BChE)	inhibition type hCA II (hCA II)	inhibition type hCA I (hCA I)	inhibition type AChE (AChE)
COc1ccc(C(=O)N2N=C(C)C(/N=N/c3cccc(S(N)(=O)=O)c3)C2=O)cc1 (stereo not drawn) [2e, 3‐([1‐(4‐Methoxybenzoyl)‐3‐Methyl‐5‐Oxo‐4,5‐Dihydro‐1H‐Pyrazol‐4‐Yl]Diazenyl) Benzenesulfonamide]	13.5 ± 0.91 nM	49 ± 6.25 nM	35.4 ± 1.94 nM	93.8 ± 10.5 nM	–	–	–
CC1=NN(C(=O)c2ccccc2)C(=O)C1/N=N/c1ccc(S(N)(=O)=O)cc1 (stereo not drawn) [1a, 4‐[(1‐Benzoyl‐3‐Methyl‐5‐Oxo‐4,5‐Dihydro‐1H‐Pyrazol‐4‐Yl)diazinyl] Benzenesulfonamide]	11.2 ± 1.15 nM	53.9 ± 5.03 nM	65.5 ± 5.42 nM	95.5 ± 5.78 nM	–	–	–
CC1=NN(C(=O)c2ccc(Cl)cc2)C(=O)C1/N=N/c1cccc(S(N)(=O)=O)c1 (stereo not drawn) [2b, 3‐([1‐(4‐Chlorobenzoyl)‐3‐Methyl‐5‐Oxo‐4,5‐Dihydro‐1H‐Pyrazol‐4‐Yl]Diazenyl) Benzenesulfonamide]	8.66 ± 0.93 nM	37.1 ± 2.43 nM	24.8 ± 1.57 nM	76.4 ± 11.6 nM	non‐competitive	–	–
CC1=NN(C(=O)c2ccccc2)C(=O)C1/N=N/c1cccc(S(N)(=O)=O)c1 (stereo not drawn) [2a, 3‐[(1‐Benzoyl‐3‐Methyl‐5‐Oxo‐4,5‐Dihydro‐1H‐Pyrazol‐4‐Yl)diazinyl] Benzenesulfonamide]	10.5 ± 0.9 nM	73.2 ± 7.17 nM	55.7 ± 4.14 nM	98.3 ± 7.34 nM	–	–	–
CC1=NN(C(=O)c2ccc(Br)cc2)C(=O)C1N=Nc1ccc(S(N)(=O)=O)cc1 (stereo not drawn) [1c, 4‐([1‐(4‐Bromobenzoyl)‐3‐Methyl‐5‐Oxo‐4,5‐Dihydro‐1H‐Pyrazol‐4‐Yl]Diazenyl) Benzenesulfonamide]	9.47 ± 1.23 nM	49.2 ± 4.27 nM	85.4 ± 6.6 nM	34.8 ± 5.88 nM	non‐competitive	–	–
CC1=NN(C(=O)c2ccc(Br)cc2)C(=O)C1/N=N/c1cccc(S(N)(=O)=O)c1 (stereo not drawn) [2c, 3‐([1‐(4‐Bromobenzoyl)‐3‐Methyl‐5‐Oxo‐4,5‐Dihydro‐1H‐Pyrazol‐4‐Yl]Diazenyl) Benzenesulfonamide]	8.43 ± 1.42 nM	44.6 ± 2.84 nM	28.8 ± 2.51 nM	96 ± 5.44 nM	–	–	–
CC1=NN(C(=O)c2cccc(Cl)c2)C(=O)C1/N=N/c1cccc(S(N)(=O)=O)c1 (stereo not drawn) [2f, 3‐([1‐(3‐Chlorobenzoyl)‐3‐Methyl‐5‐Oxo‐4,5‐Dihydro‐1H‐Pyrazol‐4‐Yl]Diazenyl) Benzenesulfonamide]	9.52 ± 0.86 nM	37.7 ± 2.06 nM	33.3 ± 4.09 nM	136 ± 17.4 nM	–	–	–
CC1=NN(C(=O)c2ccc(C)cc2)C(=O)C1N=Nc1cccc(S(N)(=O)=O)c1 (stereo not drawn) [2d, 3‐([3‐Methyl‐1‐(4‐Methylbenzoyl)‐5‐Oxo‐4,5‐Dihydro‐1H‐Pyrazol‐4‐Yl]Diazenyl) Benzenesulfonamide]	15.8 ± 1.04 nM	18 ± 2.86 nM	36.2 ± 2.78 nM	88.6 ± 12.9 nM	–	competitive	–
COc1ccc(C(=O)N2N=C(C)C(N=Nc3ccc(S(N)(=O)=O)cc3)C2=O)cc1 (stereo not drawn) [1e, 4‐([1‐(4‐Methoxybenzoyl)‐3‐Methyl‐5‐Oxo‐4,5‐Dihydro‐1H‐Pyrazol‐4‐Yl]Diazenyl) Benzenesulfonamide]	14 ± 1.49 nM	75.5 ± 4.91 nM	63.7 ± 6.71 nM	80.9 ± 9.41 nM	competitive	non‐competitive	–
CC1=NN(C(=O)c2ccc(Cl)cc2)C(=O)C1/N=N/c1ccc(S(N)(=O)=O)cc1 (stereo not drawn) [1b, 4‐([1‐(4‐Chlorobenzoyl)‐3‐Methyl‐5‐Oxo‐4,5‐Dihydro‐1H‐Pyrazol‐4‐Yl]Diazenyl) Benzenesulfonamide]	13.3 ± 1.43 nM	55.9 ± 3.29 nM	50.8 ± 3.36 nM	73.3 ± 12.2 nM	–	–	–
CC1=NN(C(=O)c2cccc(Cl)c2)C(=O)C1/N=N/c1ccc(S(N)(=O)=O)cc1 (stereo not drawn) [1f, 4‐([1‐(3‐Chlorobenzoyl)‐3‐Methyl‐5‐Oxo‐4,5‐Dihydro‐1H‐Pyrazol‐4‐Yl]Diazenyl) Benzenesulfonamide]	7.45 ± 0.98 nM	66.8 ± 5.15 nM	62.2 ± 4.19 nM	58.2 ± 8.11 nM	–	–	competitive
CC1=NN(C(=O)c2ccc(C)cc2)C(=O)C1/N=N/c1ccc(S(N)(=O)=O)cc1 (stereo not drawn) [1d, 4‐([3‐Methyl‐1‐(4‐Methylbenzoyl)‐5‐Oxo‐4,5‐Dihydro‐1H‐Pyrazol‐4‐Yl]Diazenyl) Benzenesulfonamide]	16 ± 1.6 nM	65.1 ± 3 nM	42.6 ± 2.92 nM	64.6 ± 7.59 nM	–	–	–
